Experimental data: PubChem BioAssay (NCI)
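Step 1: Grow cells in 96-well plates. Step 2: Expose to compound for 48 hours at 5 concentrations. Step 3: Interpolate endpoints linearly; if unreached, use highest concentration. GI50 = concentration required for 50% inhibition of growth. The concentration for full growth arrest is given as TGI.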

How the values were obtained:
Experiment in all cases: growth of human tumour cells (NCI), 48 h
NCI-H460 lung = tested on: NCI-H460 lung
NCI/ADR-RES ovarian = tested on: NCI/ADR-RES ovarian
OVCAR-3 ovarian = tested on: OVCAR-3 ovarian
OVCAR-4 ovarian = tested on: OVCAR-4 ovarian
OVCAR-5 ovarian = tested on: OVCAR-5 ovarian
OVCAR-8 ovarian = tested on: OVCAR-8 ovarian
PC-3 prostate = tested on: PC-3 prostate
RPMI-8226 leukemia = tested on: RPMI-8226 leukemia
RXF 393 renal = tested on: RXF 393 renal
SF-268 CNS = tested on: SF-268 CNS
SF-295 CNS = tested on: SF-295 CNS
SF-539 CNS = tested on: SF-539 CNS
SK-MEL-28 melanoma = tested on: SK-MEL-28 melanoma
SK-MEL-5 melanoma = tested on: SK-MEL-5 melanoma
SK-OV-3 ovarian = tested on: SK-OV-3 ovarian
SN12C renal = tested on: SN12C renal
SNB-19 CNS = tested on: SNB-19 CNS
SNB-75 CNS = tested on: SNB-75 CNS
SR leukemia = tested on: SR leukemia
SW-620 colon = tested on: SW-620 colon
T-47D breast = tested on: T-47D breast
U251 CNS = tested on: U251 CNS
UACC-257 melanoma = tested on: UACC-257 melanoma
UACC-62 melanoma = tested on: UACC-62 melanoma
UO-31 renal = tested on: UO-31 renal

With O=C(Cc1csc2nc(-c3ccc(Cl)cc3)cn12)N/N=C/c1ccccc1O the GI50 (NCI-H460 lung) was 1.39 µM, the TGI (NCI-H460 lung) was greater than 100 µM and the GI50 (NCI/ADR-RES ovarian) was 2.6 µM. It also gave a TGI (NCI/ADR-RES ovarian) of 81.8 µM, a GI50 (OVCAR-3 ovarian) of 0.36 µM and a TGI (OVCAR-3 ovarian) of 83.8 µM. The GI50 (OVCAR-4 ovarian) was 1.5 µM, the TGI (OVCAR-4 ovarian) was greater than 100 µM and the GI50 (OVCAR-5 ovarian) was 38.8 µM. For the same compound, the TGI (OVCAR-5 ovarian) was greater than 100 µM, the GI50 (OVCAR-8 ovarian) was 3.01 µM and the TGI (OVCAR-8 ovarian) was 78.9 µM. It also gave a GI50 (PC-3 prostate) of 3.46 µM, a TGI (PC-3 prostate) greater than 100 µM and a GI50 (RPMI-8226 leukemia) of 3.36 µM. For the same compound, the TGI (RPMI-8226 leukemia) was greater than 100 µM, the GI50 (RXF 393 renal) was 2.69 µM and the TGI (RXF 393 renal) was 39.8 µM. It also gave a GI50 (SF-268 CNS) of 1.26 µM, a TGI (SF-268 CNS) of 54.8 µM and a GI50 (SF-295 CNS) of 5.21 µM. It also gave a TGI (SF-295 CNS) greater than 100 µM, a GI50 (SF-539 CNS) of 7.93 µM and a TGI (SF-539 CNS) greater than 100 µM. It also gave a GI50 (SK-MEL-28 melanoma) of 5.5 µM, a TGI (SK-MEL-28 melanoma) greater than 100 µM and a GI50 (SK-MEL-5 melanoma) of 2.93 µM. It also gave a TGI (SK-MEL-5 melanoma) greater than 100 µM, a GI50 (SK-OV-3 ovarian) of 5.05 µM and a TGI (SK-OV-3 ovarian) greater than 100 µM. For the same compound, the GI50 (SN12C renal) was 11 µM, the TGI (SN12C renal) was greater than 100 µM and the GI50 (SNB-19 CNS) was 12.3 µM. For the same compound, the TGI (SNB-19 CNS) was greater than 100 µM, the GI50 (SNB-75 CNS) was 4.32 µM and the TGI (SNB-75 CNS) was greater than 100 µM. The GI50 (SR leukemia) was 0.603 µM, the TGI (SR leukemia) was greater than 100 µM and the GI50 (SW-620 colon) was 6.81 µM. For the same compound, the TGI (SW-620 colon) was greater than 100 µM, the GI50 (T-47D breast) was 4.16 µM and the TGI (T-47D breast) was greater than 100 µM. The GI50 (U251 CNS) was 1.77 µM, the TGI (U251 CNS) was 35.4 µM and the GI50 (UACC-257 melanoma) was 4.74 µM. For the same compound, the TGI (UACC-257 melanoma) was greater than 100 µM, the GI50 (UACC-62 melanoma) was 3.42 µM and the TGI (UACC-62 melanoma) was 38.9 µM. It also gave a GI50 (UO-31 renal) of 0.504 µM and a TGI (UO-31 renal) of 43.9 µM.
